Test results reported in patent US12390419B2, “Formulations of (R)-2-amino-3-phenylpropyl carbamate” (AXSOME MALTA LTD., priority 2016, dated 2025).
≈ marks a conversion by molar mass, not a printed value.

Experiments:
[1] = Dissolution of coated APC tablets in three media (apparatus 1 basket, 100 rpm, 900 ml, 37° C.); assay type: physicochemical
Experimental: A substantial concern was the effect of media pH. Although APC will be developed as an immediate release product, FDA guidances require comparison of profiles in three media including pH 6.8 (representing intestinal pH). […] The media used were 0.1 N HCl pH 1.2, acetate buffer pH 4.5, and phosphate buffer pH 6.8. The dissolution study was carried using 12 tablets per dose, apparatus 1 (basket), 900 ml media volume, 37° C., 100 rpm. The tablets were coated with Opadry white polymer system.

[2] = Solubility of APC in 0.2M phosphate buffers; assay type: physicochemical

SMILES: NC(=O)OC[C@H](N)Cc1ccccc1 [APC, (R)-2-amino-3-phenylpropyl carbamate]
- Percent release ([1]; 37.5 mg tablet, pH 1.2, 5 min): 71.9%
- Percent release ([1]; 37.5 mg tablet, pH 1.2, 10 min): 99.3%
- Percent release ([1]; 37.5 mg tablet, pH 1.2, 15 min): 99.7%
- Percent release ([1]; 37.5 mg tablet, pH 4.5, 5 min): 76.8%
- Percent release ([1]; 37.5 mg tablet, pH 4.5, 10 min): 101.8%
- Percent release ([1]; 37.5 mg tablet, pH 4.5, 15 min): 102.1%
- Percent release ([1]; 37.5 mg tablet, pH 6.8, 5 min): 69.6%
- Percent release ([1]; 37.5 mg tablet, pH 6.8, 10 min): 100.2%
- Percent release ([1]; 37.5 mg tablet, pH 6.8, 15 min): 100.7%
- Percent release ([1]; 75 mg tablet, pH 1.2, 5 min): 62.9%
- Percent release ([1]; 75 mg tablet, pH 1.2, 10 min): 98.7%
- Percent release ([1]; 75 mg tablet, pH 1.2, 15 min): 99.4%
- Percent release ([1]; 75 mg tablet, pH 4.5, 5 min): 53.9%
- Percent release ([1]; 75 mg tablet, pH 4.5, 10 min): 100.8%
- Percent release ([1]; 75 mg tablet, pH 4.5, 15 min): 102.5%
- Percent release ([1]; 75 mg tablet, pH 6.8, 5 min): 57.6%
- Percent release ([1]; 75 mg tablet, pH 6.8, 10 min): 99.4%
- Percent release ([1]; 75 mg tablet, pH 6.8, 15 min): 100.2%
- Percent release ([1]; 150 mg tablet, pH 1.2, 5 min): 46.8%
- Percent release ([1]; 150 mg tablet, pH 1.2, 10 min): 96.9%
- Percent release ([1]; 150 mg tablet, pH 1.2, 15 min): 98.4%
- Percent release ([1]; 150 mg tablet, pH 4.5, 5 min): 42.6%
- Percent release ([1]; 150 mg tablet, pH 4.5, 10 min): 97.7%
- Percent release ([1]; 150 mg tablet, pH 4.5, 15 min): 100.4%
- Percent release ([1]; 150 mg tablet, pH 6.8, 5 min): 42.4%
- Percent release ([1]; 150 mg tablet, pH 6.8, 10 min): 97.4%
- Percent release ([1]; 150 mg tablet, pH 6.8, 15 min): 100.7%
- Percent release ([1]; 300 mg tablet, pH 1.2, 5 min): 35.0%
- Percent release ([1]; 300 mg tablet, pH 1.2, 10 min): 91.2%
- Percent release ([1]; 300 mg tablet, pH 1.2, 15 min): 99.5%
- Percent release ([1]; 300 mg tablet, pH 4.5, 5 min): 30.0%
- Percent release ([1]; 300 mg tablet, pH 4.5, 10 min): 89.1%
- Percent release ([1]; 300 mg tablet, pH 4.5, 15 min): 99.8%
- Percent release ([1]; 300 mg tablet, pH 6.8, 5 min): 31.6%
- Percent release ([1]; 300 mg tablet, pH 6.8, 10 min): 89.9%
- Percent release ([1]; 300 mg tablet, pH 6.8, 15 min): 100.2%
- solubility ([2]; 0.2M phosphate buffer, pH 6.8, aqueous buffer, thermodynamic from solid): 26 mg/mL (≈ 134 mM)
- solubility ([2]; aqueous buffer, thermodynamic from solid, 0.2M phosphate buffer pH 5.33, pH after equilibration 4.25): 542 mg/mL (≈ 2790 mM)
- solubility ([2]; aqueous buffer, thermodynamic from solid, 0.2M phosphate buffer pH 5.95, pH after equilibration 4.78): 525 mg/mL (≈ 2710 mM)
- solubility ([2]; aqueous buffer, thermodynamic from solid, 0.2M phosphate buffer pH 6.97, pH after equilibration 6.76): 26.6 mg/mL (≈ 137 mM)
- solubility ([2]; aqueous buffer, thermodynamic from solid, 0.2M phosphate buffer pH 8.02, pH after equilibration 7.47): 22.5 mg/mL (≈ 116 mM)
- solubility ([2]; aqueous buffer, thermodynamic from solid, 0.2M phosphate buffer pH 8.99, pH after equilibration 7.55): 22.4 mg/mL (≈ 115 mM)
- solubility ([2]; pH 4.22, thermodynamic from solid, pH of buffer N/A (water), pH after equilibration 4.22): 534 mg/mL (≈ 2750 mM)
- solubility ([2]; water or acidic media, water, thermodynamic from solid): 530 mg/mL (≈ 2730 mM)
